Results taken from article PMC12196347, “Evaluating Triazole-Substituted Pyrrolopyrimidines as CSF1R Inhibitors” (Molecules, 2025).
pIC50: −log10 of the molar value. ≈ marks a conversion by molar mass, not a printed value. Where two headings read alike, the source gives them in different places.

Experiments:
AKT1 (PKB alpha) = target: T1, AKT1 (PKB alpha) (Homo sapiens, UniProt P31749); test: Kinase panel profiling: AKT1; type: biochemical; details: ATP equal to KM
T1 construct: purchased Thermo Fisher Scientific (Invitrogen) SelectScreen (Z'-LYTE)

JAK1 = target: T2, JAK1 (Homo sapiens, UniProt P23458); test: Kinase panel profiling: JAK1; type: biochemical; details: ATP equal to KM
T2 construct: purchased Thermo Fisher Scientific (Invitrogen) SelectScreen (Z'-LYTE)

ITK = target: T3, ITK (Homo sapiens, UniProt Q08881); test: Kinase panel profiling: ITK; type: biochemical; details: ATP equal to KM
T3 construct: purchased Thermo Fisher Scientific (Invitrogen) SelectScreen (Z'-LYTE)
T3 sequence (Q08881 1-620): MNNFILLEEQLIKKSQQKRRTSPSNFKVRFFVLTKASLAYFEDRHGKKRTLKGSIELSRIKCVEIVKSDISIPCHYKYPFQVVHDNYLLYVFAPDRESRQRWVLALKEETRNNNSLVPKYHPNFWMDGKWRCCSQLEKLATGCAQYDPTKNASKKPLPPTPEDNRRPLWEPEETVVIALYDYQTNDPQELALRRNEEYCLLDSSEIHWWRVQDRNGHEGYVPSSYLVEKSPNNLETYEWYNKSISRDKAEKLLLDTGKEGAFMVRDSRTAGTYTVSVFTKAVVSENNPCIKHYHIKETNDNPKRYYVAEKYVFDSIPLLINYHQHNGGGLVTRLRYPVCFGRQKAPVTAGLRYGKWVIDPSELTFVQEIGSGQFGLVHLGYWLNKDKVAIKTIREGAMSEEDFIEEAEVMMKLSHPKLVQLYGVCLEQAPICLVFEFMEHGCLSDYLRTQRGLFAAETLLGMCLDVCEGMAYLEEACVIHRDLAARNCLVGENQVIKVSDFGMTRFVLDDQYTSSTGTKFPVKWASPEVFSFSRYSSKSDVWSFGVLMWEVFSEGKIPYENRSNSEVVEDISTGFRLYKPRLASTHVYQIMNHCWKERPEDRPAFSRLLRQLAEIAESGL

CLK1 = target: T4, CLK1 (Homo sapiens, UniProt P49759); test: Kinase panel profiling: CLK1; type: biochemical; details: ATP equal to KM
T4 construct: purchased Thermo Fisher Scientific (Invitrogen) SelectScreen (Z'-LYTE)

[1] = Kinetic solubility, spectrophotometric; type: physicochemical; details: aqueous buffer, kinetic from dmso stock, spectrophotometrically at pH 7.4 in HEPES buffer
LYN B = target: T5, LYN B (Homo sapiens, UniProt P07948); test: Kinase panel profiling: LYN B; type: biochemical; details: ATP equal to KM
T5 construct: purchased Thermo Fisher Scientific (Invitrogen) SelectScreen (Z'-LYTE)

EGFR (ErbB1) = target: T6, EGFR (ErbB1) (Homo sapiens, UniProt P00533); test: Kinase panel profiling: EGFR; type: biochemical; details: ATP equal to KM
T6 construct: purchased Thermo Fisher Scientific (Invitrogen) SelectScreen (Z'-LYTE)

CSF1R = target: T7, CSF1R (Homo sapiens, UniProt P07333); test: CSF1R enzymatic inhibition, TR-FRET-based LANCE Ultra assay; type: biochemical; details: single 8-point titrations, ATP concentration 25 µM, read-out: Enz. IC50
T7 sequence (P07333 539-972 limits assumed): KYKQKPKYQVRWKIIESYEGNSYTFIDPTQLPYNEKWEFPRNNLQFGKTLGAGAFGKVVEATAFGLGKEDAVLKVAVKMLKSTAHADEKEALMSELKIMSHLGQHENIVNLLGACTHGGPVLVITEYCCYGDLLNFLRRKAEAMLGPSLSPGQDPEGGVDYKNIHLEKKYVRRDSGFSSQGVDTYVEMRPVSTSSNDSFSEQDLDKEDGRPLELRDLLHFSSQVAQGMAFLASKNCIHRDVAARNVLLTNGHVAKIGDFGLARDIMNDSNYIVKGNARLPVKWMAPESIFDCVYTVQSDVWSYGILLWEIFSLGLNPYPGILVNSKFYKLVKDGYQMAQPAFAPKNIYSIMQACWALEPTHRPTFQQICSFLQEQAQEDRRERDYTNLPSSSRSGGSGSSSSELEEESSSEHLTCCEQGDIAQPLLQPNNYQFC

SRC = SRC (Homo sapiens, UniProt P12931); test: Kinase panel profiling: SRC; type: biochemical; details: ATP equal to KM
ABL1 = target: T8, ABL1 (Homo sapiens, UniProt P00519); test: Kinase panel profiling: ABL1; type: biochemical; details: ATP equal to KM
T8 construct: purchased Thermo Fisher Scientific (Invitrogen) SelectScreen (Z'-LYTE)

RET = RET (Homo sapiens, UniProt P07949); test: Kinase panel profiling: RET; type: biochemical; details: ATP equal to KM
FGFR1 = target: T9, FGFR1 (Homo sapiens, UniProt P11362); test: Kinase panel profiling: FGFR1; type: biochemical; details: ATP equal to KM
T9 construct: purchased Thermo Fisher Scientific (Invitrogen) SelectScreen (Z'-LYTE)

CSF1R (FMS) = target: T10, CSF1R (FMS) (Homo sapiens, UniProt P07333); test: Kinase panel profiling: CSF1R; type: biochemical; details: ATP equal to KM
T10 construct: purchased Thermo Fisher Scientific (Invitrogen) SelectScreen (Z'-LYTE)

LTK (TYK1) = target: T11, LTK (TYK1) (Homo sapiens, UniProt P29376); test: Kinase panel profiling: LTK; type: biochemical; details: ATP equal to KM
T11 construct: purchased Thermo Fisher Scientific (Invitrogen) SelectScreen (Z'-LYTE)

[2] = 1000 nM test concentration, read-out: Average inhibition (%)
[3] = 1000 nM, first data point, read-out: Inhibition (%)
[4] = 1000 nM, second data point, read-out: Inhibition (%)

T6 sequence (P00533 25-1210): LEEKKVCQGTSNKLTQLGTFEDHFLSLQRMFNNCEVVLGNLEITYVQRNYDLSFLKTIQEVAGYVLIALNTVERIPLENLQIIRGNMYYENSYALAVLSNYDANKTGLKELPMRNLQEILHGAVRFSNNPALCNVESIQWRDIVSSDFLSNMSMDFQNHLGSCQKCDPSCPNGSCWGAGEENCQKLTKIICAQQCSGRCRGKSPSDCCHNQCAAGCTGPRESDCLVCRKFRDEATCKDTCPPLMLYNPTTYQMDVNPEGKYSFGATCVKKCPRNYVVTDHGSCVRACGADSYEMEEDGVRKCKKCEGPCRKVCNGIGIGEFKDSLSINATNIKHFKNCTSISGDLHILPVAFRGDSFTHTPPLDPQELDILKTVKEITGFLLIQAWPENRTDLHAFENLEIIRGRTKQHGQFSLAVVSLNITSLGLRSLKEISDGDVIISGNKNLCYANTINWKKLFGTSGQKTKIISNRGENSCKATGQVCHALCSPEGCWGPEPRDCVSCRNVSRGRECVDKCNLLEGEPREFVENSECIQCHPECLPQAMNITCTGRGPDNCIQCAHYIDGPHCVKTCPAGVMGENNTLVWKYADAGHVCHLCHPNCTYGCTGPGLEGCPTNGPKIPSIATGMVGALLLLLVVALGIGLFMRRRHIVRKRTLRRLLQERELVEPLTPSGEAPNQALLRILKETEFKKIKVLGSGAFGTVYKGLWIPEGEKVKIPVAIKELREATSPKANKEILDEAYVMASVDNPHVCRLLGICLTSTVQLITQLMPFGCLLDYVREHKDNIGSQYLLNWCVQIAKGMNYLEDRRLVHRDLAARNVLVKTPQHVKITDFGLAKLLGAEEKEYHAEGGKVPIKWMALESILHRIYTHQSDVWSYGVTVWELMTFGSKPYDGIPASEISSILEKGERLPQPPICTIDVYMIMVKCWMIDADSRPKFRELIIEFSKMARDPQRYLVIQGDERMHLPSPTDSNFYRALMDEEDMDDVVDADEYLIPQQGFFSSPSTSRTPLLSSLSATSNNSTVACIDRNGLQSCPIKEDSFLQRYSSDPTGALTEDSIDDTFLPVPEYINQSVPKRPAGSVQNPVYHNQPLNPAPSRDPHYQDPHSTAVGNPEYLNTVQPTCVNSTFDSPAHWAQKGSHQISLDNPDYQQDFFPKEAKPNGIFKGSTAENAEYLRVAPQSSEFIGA
T9 sequence (P11362 22-822): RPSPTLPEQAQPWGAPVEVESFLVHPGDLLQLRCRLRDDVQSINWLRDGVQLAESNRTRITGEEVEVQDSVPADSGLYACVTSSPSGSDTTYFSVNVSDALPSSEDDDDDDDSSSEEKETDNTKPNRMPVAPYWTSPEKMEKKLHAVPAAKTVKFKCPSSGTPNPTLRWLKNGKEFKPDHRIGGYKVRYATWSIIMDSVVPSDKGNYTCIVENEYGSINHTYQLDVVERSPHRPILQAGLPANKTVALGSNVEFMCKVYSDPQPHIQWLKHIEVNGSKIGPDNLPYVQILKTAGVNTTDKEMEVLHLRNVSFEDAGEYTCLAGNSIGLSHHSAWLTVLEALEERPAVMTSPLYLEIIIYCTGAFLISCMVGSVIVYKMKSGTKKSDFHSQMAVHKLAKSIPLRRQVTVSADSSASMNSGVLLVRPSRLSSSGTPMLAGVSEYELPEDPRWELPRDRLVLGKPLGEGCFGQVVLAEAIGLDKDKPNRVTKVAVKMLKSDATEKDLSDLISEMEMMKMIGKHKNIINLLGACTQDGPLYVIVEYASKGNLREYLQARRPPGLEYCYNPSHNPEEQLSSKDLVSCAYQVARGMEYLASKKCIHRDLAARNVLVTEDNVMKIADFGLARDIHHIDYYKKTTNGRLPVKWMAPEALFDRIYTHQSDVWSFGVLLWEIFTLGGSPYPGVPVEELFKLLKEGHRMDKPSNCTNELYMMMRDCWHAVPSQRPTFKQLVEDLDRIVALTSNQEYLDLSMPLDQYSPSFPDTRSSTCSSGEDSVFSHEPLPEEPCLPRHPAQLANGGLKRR
T5 sequence (P07948 1-491 isoform P07948-2): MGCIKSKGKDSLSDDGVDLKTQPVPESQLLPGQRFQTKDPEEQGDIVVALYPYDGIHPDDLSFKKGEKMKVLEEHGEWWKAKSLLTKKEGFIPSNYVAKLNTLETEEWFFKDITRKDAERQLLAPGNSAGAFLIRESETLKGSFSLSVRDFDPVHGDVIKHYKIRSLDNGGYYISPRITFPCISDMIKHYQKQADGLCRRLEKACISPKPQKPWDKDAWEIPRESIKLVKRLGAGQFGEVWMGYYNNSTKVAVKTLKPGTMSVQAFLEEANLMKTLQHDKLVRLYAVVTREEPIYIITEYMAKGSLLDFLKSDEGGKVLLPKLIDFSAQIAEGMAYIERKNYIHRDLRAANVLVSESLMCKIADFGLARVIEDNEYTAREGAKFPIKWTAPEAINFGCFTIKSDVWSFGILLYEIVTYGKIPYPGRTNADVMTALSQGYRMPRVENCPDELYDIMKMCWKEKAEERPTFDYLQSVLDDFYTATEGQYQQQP
T2 sequence (P23458 whole entry): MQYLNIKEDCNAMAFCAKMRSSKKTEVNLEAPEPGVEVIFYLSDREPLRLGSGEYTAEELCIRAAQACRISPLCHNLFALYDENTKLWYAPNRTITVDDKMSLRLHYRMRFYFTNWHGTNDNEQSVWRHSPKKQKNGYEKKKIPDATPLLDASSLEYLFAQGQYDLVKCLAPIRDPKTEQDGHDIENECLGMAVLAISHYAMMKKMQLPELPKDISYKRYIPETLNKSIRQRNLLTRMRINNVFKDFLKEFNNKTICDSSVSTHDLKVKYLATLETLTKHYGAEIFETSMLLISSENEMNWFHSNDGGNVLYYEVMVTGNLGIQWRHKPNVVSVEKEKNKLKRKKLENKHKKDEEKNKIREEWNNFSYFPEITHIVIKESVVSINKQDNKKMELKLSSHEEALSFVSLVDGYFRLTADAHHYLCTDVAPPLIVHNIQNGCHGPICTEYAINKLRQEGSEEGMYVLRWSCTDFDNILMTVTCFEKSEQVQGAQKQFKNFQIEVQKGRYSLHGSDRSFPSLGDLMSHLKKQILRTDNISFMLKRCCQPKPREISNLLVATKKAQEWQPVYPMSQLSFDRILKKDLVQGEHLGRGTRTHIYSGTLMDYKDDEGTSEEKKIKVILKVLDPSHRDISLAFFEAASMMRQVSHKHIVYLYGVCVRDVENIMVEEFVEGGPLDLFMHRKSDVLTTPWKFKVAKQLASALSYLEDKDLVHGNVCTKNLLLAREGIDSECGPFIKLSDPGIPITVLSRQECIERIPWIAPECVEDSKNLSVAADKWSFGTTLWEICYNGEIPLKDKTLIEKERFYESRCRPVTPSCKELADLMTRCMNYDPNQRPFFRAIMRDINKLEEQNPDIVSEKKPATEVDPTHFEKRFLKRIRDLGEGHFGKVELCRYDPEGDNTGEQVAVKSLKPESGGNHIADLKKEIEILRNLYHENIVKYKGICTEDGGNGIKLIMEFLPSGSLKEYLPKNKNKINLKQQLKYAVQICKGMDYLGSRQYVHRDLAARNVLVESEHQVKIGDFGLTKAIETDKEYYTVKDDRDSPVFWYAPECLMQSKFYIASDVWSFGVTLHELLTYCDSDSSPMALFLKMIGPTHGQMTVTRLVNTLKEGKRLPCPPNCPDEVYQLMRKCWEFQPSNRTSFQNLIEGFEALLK
Sequence of SRC (P12931 whole entry): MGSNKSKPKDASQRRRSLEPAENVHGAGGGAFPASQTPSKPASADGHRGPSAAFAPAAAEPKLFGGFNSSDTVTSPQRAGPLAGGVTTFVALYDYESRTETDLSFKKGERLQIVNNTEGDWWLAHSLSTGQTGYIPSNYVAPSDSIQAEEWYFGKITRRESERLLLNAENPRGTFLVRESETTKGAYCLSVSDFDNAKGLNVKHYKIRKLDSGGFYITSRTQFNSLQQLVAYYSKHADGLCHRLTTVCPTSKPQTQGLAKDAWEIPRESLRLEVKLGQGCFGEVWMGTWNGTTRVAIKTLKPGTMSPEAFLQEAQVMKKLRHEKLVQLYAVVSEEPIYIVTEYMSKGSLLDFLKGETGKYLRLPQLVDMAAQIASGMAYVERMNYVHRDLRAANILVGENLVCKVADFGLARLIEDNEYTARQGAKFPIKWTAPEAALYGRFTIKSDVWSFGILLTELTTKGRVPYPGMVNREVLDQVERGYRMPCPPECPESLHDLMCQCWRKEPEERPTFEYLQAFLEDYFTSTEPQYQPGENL
T1 sequence (P31749 whole entry): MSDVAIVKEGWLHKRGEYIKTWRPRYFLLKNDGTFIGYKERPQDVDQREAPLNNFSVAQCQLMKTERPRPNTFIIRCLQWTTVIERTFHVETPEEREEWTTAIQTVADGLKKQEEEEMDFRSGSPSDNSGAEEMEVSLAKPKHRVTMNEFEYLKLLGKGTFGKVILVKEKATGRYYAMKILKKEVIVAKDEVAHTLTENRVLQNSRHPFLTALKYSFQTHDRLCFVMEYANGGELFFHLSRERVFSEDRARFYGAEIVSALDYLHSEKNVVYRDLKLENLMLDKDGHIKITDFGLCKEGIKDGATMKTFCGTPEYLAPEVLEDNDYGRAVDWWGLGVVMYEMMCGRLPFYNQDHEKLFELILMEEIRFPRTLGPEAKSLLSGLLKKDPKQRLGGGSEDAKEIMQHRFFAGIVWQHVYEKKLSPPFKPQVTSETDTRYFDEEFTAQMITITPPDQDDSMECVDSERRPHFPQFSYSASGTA

Structure (SMILES): Cc1cccc(CN(C)c2ncnc3[nH]c(-c4cn(Cc5cccnc5)nn4)cc23)c1 [Compound 27a, N-Methyl-N-(3-methylbenzyl)-6-(1-(pyridin-3-ylmethyl)-1H-1,2,3-triazol-4-yl)-7H-pyrrolo[2,3-d]pyrimidin-4-amine]
- inhibition at 1 µM (AKT1 (PKB alpha); [2]): 2%
- inhibition at 1 µM (AKT1 (PKB alpha); [3]): 3%
- inhibition at 1 µM (AKT1 (PKB alpha); [4]): 1%
- inhibition at 1 µM (JAK1; [2]): 9%
- inhibition at 1 µM (JAK1; [3]): 22%
- inhibition at 1 µM (JAK1; [4]): -3%
- inhibition at 1 µM (ITK; [2]): 55%
- inhibition at 1 µM (ITK; [3]): 58%
- inhibition at 1 µM (ITK; [4]): 51%
- inhibition at 1 µM (CLK1; [2]): 8%
- inhibition at 1 µM (CLK1; [3]): 8%
- solubility kinetic [1]: 3.1 µM (≈ 1.27 µg/mL)
- inhibition at 1 µM (LYN B; [2]): 76%
- inhibition at 1 µM (LYN B; [3]): 74%
- inhibition at 1 µM (LYN B; [4]): 79%
- inhibition at 1 µM (EGFR (ErbB1); [2]): 85%
- inhibition at 1 µM (EGFR (ErbB1); [3]): 84%
- inhibition at 1 µM (EGFR (ErbB1); [4]): 87%
- pIC50 (CSF1R): > 9.00
- inhibition at 1 µM (SRC; [2]): 96%
- inhibition at 1 µM (SRC; [3]): 96%
- inhibition at 1 µM (SRC; [4]): 95%
- inhibition at 1 µM (ABL1; [2]): 99%
- inhibition at 1 µM (ABL1; [3]): 99%
- inhibition at 1 µM (RET; [2]): 29%
- inhibition at 1 µM (RET; [3]): 28%
- inhibition at 1 µM (RET; [4]): 30%
- inhibition at 1 µM (FGFR1; [2]): 9%
- inhibition at 1 µM (FGFR1; [3]): 9%
- inhibition at 1 µM (FGFR1; [4]): 8%
- inhibition at 1 µM (CSF1R (FMS); [2]): 99%
- inhibition at 1 µM (CSF1R (FMS); [3]): 99%
- inhibition at 1 µM (LTK (TYK1); [2]): 25%
- inhibition at 1 µM (LTK (TYK1); [3]): 25%
